Columns and labels:
CCRF-CEM = assay: NCI single dose (10 µM) SRB screen; type: cell-based, human; conditions: leukaemia, 48 h
HL-60(TB) = assay: NCI single dose (10 µM) SRB screen; type: cell-based, human; conditions: leukaemia, 48 h
K-562 = assay: NCI single dose (10 µM) SRB screen; type: cell-based, human; conditions: leukaemia, 48 h
MOLT-4 = assay: NCI single dose (10 µM) SRB screen; type: cell-based, human; conditions: leukaemia, 48 h
RPMI-8226 = assay: NCI single dose (10 µM) SRB screen; type: cell-based, human; conditions: leukaemia, 48 h
SR = assay: NCI single dose (10 µM) SRB screen; type: cell-based, human; conditions: leukaemia, 48 h
A549/ATCC = assay: NCI single dose (10 µM) SRB screen; type: cell-based, human; conditions: non-small cell lung cancer, 48 h
EKVX = assay: NCI single dose (10 µM) SRB screen; type: cell-based, human; conditions: non-small cell lung cancer, 48 h
HOP-62 = assay: NCI single dose (10 µM) SRB screen; type: cell-based, human; conditions: non-small cell lung cancer, 48 h
HOP-92 = assay: NCI single dose (10 µM) SRB screen; type: cell-based, human; conditions: non-small cell lung cancer, 48 h
NCI-H226 = assay: NCI single dose (10 µM) SRB screen; type: cell-based, human; conditions: non-small cell lung cancer, 48 h
NCI-H23 = assay: NCI single dose (10 µM) SRB screen; type: cell-based, human; conditions: non-small cell lung cancer, 48 h
NCI-H322M = assay: NCI single dose (10 µM) SRB screen; type: cell-based; conditions: non-small cell lung cancer, 48 h
NCI-H460 = assay: NCI single dose (10 µM) SRB screen; type: cell-based, human; conditions: non-small cell lung cancer, 48 h
NCI-H522 = assay: NCI single dose (10 µM) SRB screen; type: cell-based, human; conditions: non-small cell lung cancer, 48 h
COLO 205 = assay: NCI single dose (10 µM) SRB screen; type: cell-based, human; conditions: colon cancer, 48 h
HCC-2998 = assay: NCI single dose (10 µM) SRB screen; type: cell-based, human; conditions: colon cancer, 48 h
HCT-116 = assay: NCI single dose (10 µM) SRB screen; type: cell-based, human; conditions: colon cancer, 48 h
HCT-15 = assay: NCI single dose (10 µM) SRB screen; type: cell-based, human; conditions: colon cancer, 48 h
HT29 = assay: NCI single dose (10 µM) SRB screen; type: cell-based, human; conditions: colon cancer, 48 h
KM12 = assay: NCI single dose (10 µM) SRB screen; type: cell-based, human; conditions: colon cancer, 48 h
SW-620 = assay: NCI single dose (10 µM) SRB screen; type: cell-based, human; conditions: colon cancer, 48 h
SF-268 = assay: NCI single dose (10 µM) SRB screen; type: cell-based, human; conditions: CNS cancer, 48 h
SF-295 = assay: NCI single dose (10 µM) SRB screen; type: cell-based, human; conditions: CNS cancer, 48 h
SF-539 = assay: NCI single dose (10 µM) SRB screen; type: cell-based, human; conditions: CNS cancer, 48 h
SNB-19 = assay: NCI single dose (10 µM) SRB screen; type: cell-based, human; conditions: CNS cancer, 48 h
SNB-75 = assay: NCI single dose (10 µM) SRB screen; type: cell-based, human; conditions: CNS cancer, 48 h
U251 = assay: NCI single dose (10 µM) SRB screen; type: cell-based, human; conditions: CNS cancer, 48 h
LOX IMVI = assay: NCI single dose (10 µM) SRB screen; type: cell-based, human; conditions: melanoma, 48 h
MALME-3M = assay: NCI single dose (10 µM) SRB screen; type: cell-based, human; conditions: melanoma, 48 h
M14 = assay: NCI single dose (10 µM) SRB screen; type: cell-based, human; conditions: melanoma, 48 h
MDA-MB-435 = assay: NCI single dose (10 µM) SRB screen; type: cell-based, human; conditions: melanoma, 48 h
SK-MEL-2 = assay: NCI single dose (10 µM) SRB screen; type: cell-based, human; conditions: melanoma, 48 h
SK-MEL-28 = assay: NCI single dose (10 µM) SRB screen; type: cell-based, human; conditions: melanoma, 48 h
SK-MEL-5 = assay: NCI single dose (10 µM) SRB screen; type: cell-based, human; conditions: melanoma, 48 h
UACC-257 = assay: NCI single dose (10 µM) SRB screen; type: cell-based, human; conditions: melanoma, 48 h
UACC-62 = assay: NCI single dose (10 µM) SRB screen; type: cell-based, human; conditions: melanoma, 48 h
IGROV1 = assay: NCI single dose (10 µM) SRB screen; type: cell-based, human; conditions: ovarian cancer, 48 h
OVCAR-3 = assay: NCI single dose (10 µM) SRB screen; type: cell-based, human; conditions: ovarian cancer, 48 h
OVCAR-4 = assay: NCI single dose (10 µM) SRB screen; type: cell-based, human; conditions: ovarian cancer, 48 h
OVCAR-5 = assay: NCI single dose (10 µM) SRB screen; type: cell-based, human; conditions: ovarian cancer, 48 h
OVCAR-8 = assay: NCI single dose (10 µM) SRB screen; type: cell-based, human; conditions: ovarian cancer, 48 h
NCI/ADR-RES = assay: NCI single dose (10 µM) SRB screen; type: cell-based, human; conditions: ovarian cancer, 48 h
SK-OV-3 = assay: NCI single dose (10 µM) SRB screen; type: cell-based, human; conditions: ovarian cancer, 48 h
786-0 = assay: NCI single dose (10 µM) SRB screen; type: cell-based, human; conditions: renal cancer, 48 h
A498 = assay: NCI single dose (10 µM) SRB screen; type: cell-based, human; conditions: renal cancer, 48 h
ACHN = assay: NCI single dose (10 µM) SRB screen; type: cell-based, human; conditions: renal cancer, 48 h
CAKI-1 = assay: NCI single dose (10 µM) SRB screen; type: cell-based, human; conditions: renal cancer, 48 h
RXF 393 = assay: NCI single dose (10 µM) SRB screen; type: cell-based, human; conditions: renal cancer, 48 h
SN12C = assay: NCI single dose (10 µM) SRB screen; type: cell-based, human; conditions: renal cancer, 48 h
TK-10 = assay: NCI single dose (10 µM) SRB screen; type: cell-based, human; conditions: renal cancer, 48 h
UO-31 = assay: NCI single dose (10 µM) SRB screen; type: cell-based, human; conditions: renal cancer, 48 h
PC-3 = assay: NCI single dose (10 µM) SRB screen; type: cell-based, human; conditions: prostate cancer, 48 h
DU-145 = assay: NCI single dose (10 µM) SRB screen; type: cell-based, human; conditions: prostate cancer, 48 h
MCF7 = assay: NCI single dose (10 µM) SRB screen; type: cell-based, human; conditions: breast cancer, 48 h
MDA-MB-231 = assay: NCI single dose (10 µM) SRB screen; type: cell-based, human; conditions: breast cancer, 48 h
HS578T = assay: NCI single dose (10 µM) SRB screen; type: cell-based, human; conditions: breast cancer, 48 h
BT-549 = assay: NCI single dose (10 µM) SRB screen; type: cell-based, human; conditions: breast cancer, 48 h
T-47D = assay: NCI single dose (10 µM) SRB screen; type: cell-based, human; conditions: breast cancer, 48 h
MDA-MB-468 = assay: NCI single dose (10 µM) SRB screen; type: cell-based, human; conditions: breast cancer, 48 h
NCI 60 cancer cell lines = assay: NCI single dose (10 µM) SRB screen, mean over panel; type: cell-based, human; conditions: mean over 60 cell lines, 48 h
Staphylococcus aureus = assay: Agar well diffusion method
Bacillus subtilis = assay: Agar well diffusion method; conditions: relative to ciprofloxacin
Escherichia coli = assay: Agar well diffusion method; conditions: relative to ciprofloxacin
Pseudomonas aeruginosa = assay: Agar well diffusion method; conditions: relative to ciprofloxacin
Candida albicans = assay: Agar well diffusion method; conditions: relative to clotrimazole
Aspergillus flavus = assay: Agar well diffusion method; conditions: relative to clotrimazole

SMILES: CCCC1=C(C(=O)OCC)C(c2cccc(C#N)c2)C(C(=O)OC)=C(C)N1 (racemic) [Compound 2f, (±)-3-Ethyl 5-methyl 4-(3-cyanophenyl)-6-methyl-2-propyl-1,4-dihydropyridine-3,5-dicarboxylate]
- GI% CCRF-CEM (CCRF-CEM): – (Only GI% ≥ 10 are shown)
- GI% HL-60(TB) (HL-60(TB)): 11%
- GI% K-562 (K-562): – (Only GI% ≥ 10 are shown)
- GI% MOLT-4 (MOLT-4): 14%
- GI% RPMI-8226 (RPMI-8226): 12%
- GI% SR (SR): – (Only GI% ≥ 10 are shown)
- GI% A549/ATCC (A549/ATCC): – (Only GI% ≥ 10 are shown)
- GI% EKVX (EKVX): – (Only GI% ≥ 10 are shown)
- GI% HOP-62 (HOP-62): – (Only GI% ≥ 10 are shown)
- GI% HOP-92 (HOP-92): – (Only GI% ≥ 10 are shown)
- GI% NCI-H226 (NCI-H226): – (Only GI% ≥ 10 are shown)
- GI% NCI-H23 (NCI-H23): – (Only GI% ≥ 10 are shown)
- GI% NCI-H322M (NCI-H322M): – (Only GI% ≥ 10 are shown)
- GI% NCI-H460 (NCI-H460): – (Only GI% ≥ 10 are shown)
- GI% NCI-H522 (NCI-H522): – (Only GI% ≥ 10 are shown)
- GI% COLO 205 (COLO 205): – (Only GI% ≥ 10 are shown)
- GI% HCC-2998 (HCC-2998): – (Only GI% ≥ 10 are shown)
- GI% HCT-116 (HCT-116): 11%
- GI% HCT-15 (HCT-15): – (Only GI% ≥ 10 are shown)
- GI% HT29 (HT29): – (Only GI% ≥ 10 are shown)
- GI% KM12 (KM12): – (Only GI% ≥ 10 are shown)
- GI% SW-620 (SW-620): – (Only GI% ≥ 10 are shown)
- GI% SF-268 (SF-268): – (Only GI% ≥ 10 are shown)
- GI% SF-295 (SF-295): – (Only GI% ≥ 10 are shown)
- GI% SF-539 (SF-539): – (Only GI% ≥ 10 are shown)
- GI% SNB-19 (SNB-19): – (Only GI% ≥ 10 are shown)
- GI% SNB-75 (SNB-75): 37%
- GI% U251 (U251): – (Only GI% ≥ 10 are shown)
- GI% LOX IMVI (LOX IMVI): – (Only GI% ≥ 10 are shown)
- GI% MALME-3M (MALME-3M): – (Only GI% ≥ 10 are shown)
- GI% M14 (M14): – (Only GI% ≥ 10 are shown)
- GI% MDA-MB-435 (MDA-MB-435): – (Only GI% ≥ 10 are shown)
- GI% SK-MEL-2 (SK-MEL-2): – (Only GI% ≥ 10 are shown)
- GI% SK-MEL-28 (SK-MEL-28): – (Only GI% ≥ 10 are shown)
- GI% SK-MEL-5 (SK-MEL-5): – (Only GI% ≥ 10 are shown)
- GI% UACC-257 (UACC-257): – (Only GI% ≥ 10 are shown)
- GI% UACC-62 (UACC-62): 21%
- GI% IGROV1 (IGROV1): – (Only GI% ≥ 10 are shown)
- GI% OVCAR-3 (OVCAR-3): – (Only GI% ≥ 10 are shown)
- GI% OVCAR-4 (OVCAR-4): – (Only GI% ≥ 10 are shown)
- GI% OVCAR-5 (OVCAR-5): – (Only GI% ≥ 10 are shown)
- GI% OVCAR-8 (OVCAR-8): – (Only GI% ≥ 10 are shown)
- GI% NCI/ADR-RES (NCI/ADR-RES): – (Only GI% ≥ 10 are shown)
- GI% SK-OV-3 (SK-OV-3): – (Only GI% ≥ 10 are shown)
- GI% 786-0 (786-0): – (Only GI% ≥ 10 are shown)
- GI% A498 (A498): – (Only GI% ≥ 10 are shown)
- GI% ACHN (ACHN): – (Only GI% ≥ 10 are shown)
- GI% CAKI-1 (CAKI-1): 18%
- GI% RXF 393 (RXF 393): – (Only GI% ≥ 10 are shown)
- GI% SN12C (SN12C): – (Only GI% ≥ 10 are shown)
- GI% TK-10 (TK-10): – (Only GI% ≥ 10 are shown)
- GI% UO-31 (UO-31): 13%
- GI% PC-3 (PC-3): 23%
- GI% DU-145 (DU-145): – (Only GI% ≥ 10 are shown)
- GI% MCF7 (MCF7): – (Only GI% ≥ 10 are shown)
- GI% MDA-MB-231 (MDA-MB-231): – (Only GI% ≥ 10 are shown)
- GI% HS578T (HS578T): – (Only GI% ≥ 10 are shown)
- GI% BT-549 (BT-549): – (Only GI% ≥ 10 are shown)
- GI% T-47D (T-47D): – (Only GI% ≥ 10 are shown)
- GI% MDA-MB-468 (MDA-MB-468): – (Only GI% ≥ 10 are shown)
- Mean GI% (NCI 60 cancer cell lines): 1%
- melting point: 121 to 122 °C
- zone of inhibition at 1000 µg/mL (Staphylococcus aureus; Staphylococcus aureus, 24 h, read-out: Diameter of inhibition zone, S. aureus): 6 mm
- % activity index, S. aureus (Staphylococcus aureus; relative to ciprofloxacin): 25%
- % activity index, B. subtilis (Bacillus subtilis): – (Values below 25 are of limited value and not shown as they refer either to inactive or non-diffusing compounds)
- % activity index, E. coli (Escherichia coli): – (Values below 25 are of limited value and not shown as they refer either to inactive or non-diffusing compounds)
- % activity index, P. aeruginosa (Pseudomonas aeruginosa): – (Values below 25 are of limited value and not shown as they refer either to inactive or non-diffusing compounds)
- % activity index, C. albicans (Candida albicans): – (Values below 25 are of limited value and not shown as they refer either to inactive or non-diffusing compounds)
- % activity index, A. flavus (Aspergillus flavus): – (Values below 25 are of limited value and not shown as they refer either to inactive or non-diffusing compounds)
